Experimental data from patent US20230270810A1, “VETERINARY COMPOSITIONS FOR THE TREATMENT AND/OR PREVENTION OF PROTOZOAN DISEASES AND METHODS OF PREPARATION THEREOF” (ADIFEED SP. Z O. O., priority 2020, published 2023).

How the values were obtained:
Gregarina blattarum = experiment: in vitro protozoicidal test, LD50/LD100 within 3 minutes, gregarines isolated from cockroaches; type: cell-based; conditions: in Ringer's solution
Source text: For in vitro tests of antiprotozoal activity of the composition five reference organisms representing taxonomic groups to which pathogenic protozoa belong were selected, i.e: • Amoeba proteus—Chaos diffluens—a protozoan of the order Euamoebida, belonging to fifth supergroup of the Amoebozoa, living in waters. • Paramecium caudatum—a slipper animalcule representing the Ciliata orachs, living in waters. • Gregarina blattarum—gregarine isolated from cockroaches, representing the phylum Apicomplexa, living in the digestive tracts or body cavities of invertebrates. • Euglena gracilis—a protozoan living in water, representing the flagellates—Mastigophora, family Euglenaceae. • Trichomonas hominis—a protozoan living in the human colon, representing the Trichomonadidae.
The gregarines were isolated from the cockroaches and, after being placed on a watch slide, were treated with the products at different concentrations in Ringer's solution. Each sample contained ten individuals. […]
The mixture was heated at the boiling point, until the colour changed, under reflux for 20 minutes. […] Compositions I and II were then analysed for their antiprotozoal properties. […]
Individual acids, catalyst solution, essential oil and metal salt solutions were additionally analysed for protozoal properties. […] Observation under a fluorescence microscope with phase contrast was carried out.

Trichomonas hominis = experiment: in vitro protozoicidal test, LD50/LD100 within 3 minutes; type: cell-based
Amoeba proteus = experiment: as above; type: cell-based
Trypanosoma cruzi = conditions: read-out: inhibitory effect on 50% of the population (IC50); cited from earlier work
[1] = tested on: Trypanosoma cruzi and Leishmania chagasi; conditions: cited from earlier work
[2] = tested on: Trypanosoma cruzi and different Leishmania species; conditions: cited from earlier work
[3] = death of 50% of individuals within 3 minutes
[4] = death of 100% of individuals within 3 minutes

## Cc1ncc([N+](=O)[O-])n1CCO [M, metronidazole]
Gregarina blattarum; 50% of individuals within 3 minutes
  LD50: 0.13%
Gregarina blattarum; 100% of individuals within 3 minutes
  LD100: 0.3%
Trichomonas hominis; [3]
  LD50: 0.05%
Trichomonas hominis; [4]
  LD100: 0.1%
Amoeba proteus; [3]
  LD50: 0.3%
Amoeba proteus; [4]
  LD100: 0.5%

## CC1CS(=O)(=O)CCN1/N=C/c1ccc([N+](=O)[O-])o1 (stereo not drawn) [Nifurtimox]
Trypanosoma cruzi
  IC50: 6 µM
[1]
  IC50: 0.3 to 0.4 µg/mL

## O=C(Cn1ccnc1[N+](=O)[O-])NCc1ccccc1 [benznidazole]
[2]
  values obtained (in vitro antiprotozoal activity): 45.02 µg/mL
